# Experimental data from patent US20210115104A1, “AMYLIN ANALOGUES” (Zealand Pharma A/S, priority 2015, published 2021).
# Where two headings read alike, the source gives them in different places. *1 amine or outer side, *2 acyl side, *3 side chain or, on linkers, in order; H or OH if unused. Where a SMILES comes first, the peptide text is derived from it. Bridges are numbered along the chain shown (N, C = ends). [ ]: non-standard residue; d: D form. The star is where a group is joined. C20 diacid = O=C(O)CCCCCCCCCCCCCCCCCCC(=O)*; γGlu = O=C(O)[C@H](CCC(=O)[*:2])N[*:1]; Hyp = O=C(O)[C@@H]1C[C@@H](O)CN1; NMeI = CC[C@H](C)[C@H](NC)C(=O)O; Aad = N[C@@H](CCCC(=O)O)C(=O)O; Sar = CNCC(=O)O
# Tests used:
# [1] = target: T1, human calcitonin receptor (hCTR2) (Homo sapiens, UniProt P30988); assay: hCTR2 cAMP assay (AlphaScreen) in COS7 cells; assay type: cell-based
# T1 construct: expressed in transfected cells
# T1 sequence (P30988 25-474): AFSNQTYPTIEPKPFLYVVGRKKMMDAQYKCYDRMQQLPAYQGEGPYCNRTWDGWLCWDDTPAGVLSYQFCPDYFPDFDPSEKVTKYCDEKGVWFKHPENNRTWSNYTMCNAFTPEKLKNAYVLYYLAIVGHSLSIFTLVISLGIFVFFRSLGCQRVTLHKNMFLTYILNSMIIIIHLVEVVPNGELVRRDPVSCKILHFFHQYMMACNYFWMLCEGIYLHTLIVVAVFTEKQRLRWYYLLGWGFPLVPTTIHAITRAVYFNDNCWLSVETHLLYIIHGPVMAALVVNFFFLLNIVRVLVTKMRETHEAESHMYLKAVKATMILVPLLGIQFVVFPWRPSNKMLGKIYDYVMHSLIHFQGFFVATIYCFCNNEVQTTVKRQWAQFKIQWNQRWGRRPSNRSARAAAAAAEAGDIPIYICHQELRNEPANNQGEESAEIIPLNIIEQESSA
# Outline: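 cAMP induction, read by AlphaScreen after lysis, gives EC50 values via 4PL curve fitting. Peptides were applied at rising concentrations for 15 min at 37 °C, with IBMX and 0.1% casein in HEPES-buffered Tyrode pH 7.4, to COS7 cells (no endogenous RAMPs) stably expressing human CTR2.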
# [2] = target: T2, human amylin receptor 3 (hAMYR3), hCTR2 co-expressed with hRAMP3 (Homo sapiens, UniProt O60896+P30988); assay: hAMYR3 cAMP assay (AlphaScreen) in COS7 cells; assay type: cell-based
# T2 construct: expressed in transfected cells
# T2 sequence (P30988 25-474): T1 sequence (P30988 25-474)
# T2 sequence (O60896 24-148 partner): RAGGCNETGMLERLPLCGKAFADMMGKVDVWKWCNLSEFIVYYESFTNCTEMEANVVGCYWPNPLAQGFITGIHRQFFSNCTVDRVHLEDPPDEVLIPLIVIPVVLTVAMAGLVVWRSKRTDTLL
# Outline: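 EC50 values derive from 4PL curve fits of cAMP (AlphaScreen) in lysates of RAMP-naive COS7 cells stably carrying hCTR2 plus hRAMP3. Peptide dilution series were applied for 15 min at 37 °C in pH 7.4 Tyrode buffer containing 100 µM IBMX and 0.1% casein.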
# [3] = Assessment of chemical stability (RP-HPLC normalized purity); assay type: physicochemical; settings: for Normalized purity pH 4 (Table 5): pH 4, repeat of Example 6 for pairs with/without Asn-Asn at 21-22; for Normalized purity pH 6 (Table 5): pH 6, repeat of Example 6 for pairs with/without Asn-Asn at 21-22; for Normalized purity pH 7.5 (Table 5): pH 7.5, repeat of Example 6 for pairs with/without Asn-Asn at 21-22; for Normalized purity pH 9 (Table 5): pH 9, repeat of Example 6 for pairs with/without Asn-Asn at 21-22
# Outline: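 Purity after 7 days at 40° C is expressed relative to T=0 (set to 100) for each pH. Samples at 0.2 mg/ml, pH 4, 6, 7.5 or 9, analyzed by RP-HPLC with UV 220 nm on C8 (ammonium formate) or C18 (TFA) gradients.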
Compound,"EC50 ([1]; cAMP induction, COS7 cells expressing hCTR2, Table 1, read-out: hCTR2 EC50)","EC50 ([2]; cAMP induction, COS7 cells expressing hAMYR3, Table 1, read-out: hAMYR3 EC50)","Normalized purity after 7 days, 40° C., pH 4 ([3]; pH 4, 0.2 mg/ml, 7 days, 40° C., Table 1)","Normalized purity after 7 days, 40° C., pH 6 ([3]; pH 6, 0.2 mg/ml, 7 days, 40° C., Table 1)","Normalized purity after 7 days, 40° C., pH 7.5 ([3]; pH 7.5, 0.2 mg/ml, 7 days, 40° C., Table 1)","Normalized purity after 7 days, 40° C., pH 9 ([3]; pH 9, 0.2 mg/ml, 7 days, 40° C., Table 1)",EC50 [1],EC50 [2],Normalized purity pH 4 (Table 5) [3],Normalized purity pH 6 (Table 5) [3],Normalized purity pH 7.5 (Table 5) [3],Normalized purity pH 9 (Table 5) [3]
"CC[C@H](C)[C@@H](C(=O)N[C@@H](CC(C)C)C(=O)N[C@@H](CO)C(=O)N[C@@H](CO)C(=O)N[C@H](C(=O)N[C@@H](CCC(=O)O)C(=O)N[C@H](C(=O)NCC(=O)N[C@@H](CO)C(=O)N[C@@H](CC(N)=O)C(=O)N[C@H](C(=O)N1C[C@H](O)C[C@H]1C(N)=O)[C@@H](C)O)C(C)C)[C@@H](C)O)N(C)C(=O)[C@H](C)NC(=O)CN(C)C(=O)[C@H](Cc1ccccc1)NC(=O)[C@H](CCCNC(=N)N)NC(=O)[C@H](CCC(N)=O)NC(=O)[C@H](CC(C)C)NC(=O)[C@H](Cc1ccccc1)NC(=O)[C@H](CCCC(=O)O)NC(=O)[C@H](C)NC(=O)[C@H](CC(C)C)NC(=O)[C@H](CCCNC(=N)N)NC(=O)[C@H](CC(=O)O)NC(=O)[C@@H](NC(=O)[C@H](C)NC(=O)[C@@H]1CSSC[C@H](NC(=O)[C@H](CCCNC(=N)N)NC(=O)CC[C@H](NC(=O)CCCCCCCCCCCCCCCCCCC(=O)O)C(=O)O)C(=O)N[C@@H](CCC(N)=O)C(=O)N[C@@H]([C@@H](C)O)C(=O)N[C@@H](C)C(=O)N[C@@H]([C@@H](C)O)C(=O)N1)[C@@H](C)O [Compound 95, [19CD]-isoGlu-R-C( )-QTAT-C( )-ATDRLA-Aad-FLQRF-Gly(Me)-A-Ile(Me)-LSSTEVGSNT-Hyp-NH2] ({C20 diacid-γGlu}-RCQTATCATDRLA[Aad]FLQRF[Sar]A[NMeI]LSSTEVGSNT[Hyp]-NH2; disulfide 2-7)",0.18 nM,0.2 nM,A (A = >90%),A (A = >90%),A (A = >90%),A (A = >90%),–,–,–,–,–,–
"CC[C@H](C)[C@@H](C(=O)N[C@@H](CC(C)C)C(=O)N[C@@H](CO)C(=O)N[C@@H](CO)C(=O)N[C@H](C(=O)N[C@@H](CCC(=O)O)C(=O)N[C@H](C(=O)NCC(=O)N[C@@H](CO)C(=O)N[C@@H](CC(N)=O)C(=O)N[C@H](C(=O)N1C[C@H](O)C[C@H]1C(N)=O)[C@@H](C)O)C(C)C)[C@@H](C)O)N(C)C(=O)[C@H](C)NC(=O)CN(C)C(=O)[C@H](Cc1ccccc1)NC(=O)[C@H](CC(N)=O)NC(=O)[C@H](CC(N)=O)NC(=O)[C@H](CO)NC(=O)[C@H](CO)NC(=O)[C@H](CCCNC(=N)N)NC(=O)[C@H](CCC(N)=O)NC(=O)[C@H](CC(C)C)NC(=O)[C@H](Cc1ccccc1)NC(=O)[C@H](CCCC(=O)O)NC(=O)[C@H](C)NC(=O)[C@H](CC(C)C)NC(=O)[C@H](CCCNC(=N)N)NC(=O)[C@H](CCC(=O)O)NC(=O)[C@@H](NC(=O)[C@H](C)NC(=O)[C@@H]1CSSC[C@H](NC(=O)[C@H](CCCNC(=N)N)NC(=O)CC[C@H](NC(=O)CCCCCCCCCCCCCCCCCCC(=O)O)C(=O)O)C(=O)NCC(=O)N[C@@H]([C@@H](C)O)C(=O)N[C@@H](C)C(=O)N[C@@H]([C@@H](C)O)C(=O)N1)[C@@H](C)O [Compound 98, [19CD]-isoGlu-R-C( )-GTAT-C( )-ATERLA-Aad-FLQRSSNNF-Gly(Me)-A-Ile(Me)-LSSTEVGSNT-Hyp-NH2, reference compound] ({C20 diacid-γGlu}-RCGTATCATERLA[Aad]FLQRSSNNF[Sar]A[NMeI]LSSTEVGSNT[Hyp]-NH2; disulfide 2-7)",–,–,–,–,–,–,7.2 nM,0.38 nM,A (A = >90%),A (A = >90%),B (B = 70-90%),B (B = 70-90%)
"CC[C@H](C)[C@@H](C(=O)N[C@@H](CC(C)C)C(=O)N[C@@H](CO)C(=O)N[C@@H](CO)C(=O)N[C@H](C(=O)N[C@@H](CCC(=O)O)C(=O)N[C@H](C(=O)NCC(=O)N[C@@H](CO)C(=O)N[C@@H](CC(N)=O)C(=O)N[C@H](C(=O)N1C[C@H](O)C[C@H]1C(N)=O)[C@@H](C)O)C(C)C)[C@@H](C)O)N(C)C(=O)[C@H](C)NC(=O)CN(C)C(=O)[C@H](Cc1ccccc1)NC(=O)[C@H](CC(N)=O)NC(=O)[C@H](CC(N)=O)NC(=O)[C@H](CO)NC(=O)[C@H](CO)NC(=O)[C@H](CCCNC(=N)N)NC(=O)[C@H](CCC(N)=O)NC(=O)[C@H](CC(C)C)NC(=O)[C@H](Cc1ccccc1)NC(=O)[C@H](Cc1c[nH]cn1)NC(=O)[C@H](C)NC(=O)[C@H](CC(C)C)NC(=O)[C@H](CCCNC(=N)N)NC(=O)[C@H](CCC(=O)O)NC(=O)[C@@H](NC(=O)[C@H](C)NC(=O)[C@@H]1CSSC[C@H](NC(=O)[C@H](CCCNC(=N)N)NC(=O)CC[C@H](NC(=O)CCCCCCCCCCCCCCCCCCC(=O)O)C(=O)O)C(=O)N[C@@H](CCC(N)=O)C(=O)N[C@@H]([C@@H](C)O)C(=O)N[C@@H](C)C(=O)N[C@@H]([C@@H](C)O)C(=O)N1)[C@@H](C)O [Compound 99, [19CD]-isoGlu-R-C( )-QTAT-C( )-ATERLAHFLQRSSNNF-Gly(Me)-A-Ile(Me)-LSSTEVGSNT-Hyp-NH2, reference compound] ({C20 diacid-γGlu}-RCQTATCATERLAHFLQRSSNNF[Sar]A[NMeI]LSSTEVGSNT[Hyp]-NH2; disulfide 2-7)",–,–,–,–,–,–,3.8 nM,0.59 nM,A (A = >90%),A (A = >90%),B (B = 70-90%),B (B = 70-90%)
"CC[C@H](C)[C@@H](C(=O)N[C@@H](CC(C)C)C(=O)N[C@@H](CO)C(=O)N[C@@H](CO)C(=O)N[C@H](C(=O)N[C@@H](CCC(=O)O)C(=O)N[C@H](C(=O)NCC(=O)N[C@@H](CO)C(=O)N[C@@H](CC(N)=O)C(=O)N[C@H](C(=O)N1C[C@H](O)C[C@H]1C(N)=O)[C@@H](C)O)C(C)C)[C@@H](C)O)N(C)C(=O)[C@H](C)NC(=O)CN(C)C(=O)[C@H](Cc1ccccc1)NC(=O)[C@H](CC(N)=O)NC(=O)[C@H](CC(N)=O)NC(=O)[C@H](CO)NC(=O)[C@H](CO)NC(=O)[C@H](CCCNC(=N)N)NC(=O)[C@H](CCC(N)=O)NC(=O)[C@H](CC(C)C)NC(=O)[C@H](Cc1ccccc1)NC(=O)[C@H](CCCC(=O)O)NC(=O)[C@H](C)NC(=O)[C@H](CC(C)C)NC(=O)[C@H](CCCNC(=N)N)NC(=O)[C@H](CC(=O)O)NC(=O)[C@@H](NC(=O)[C@H](C)NC(=O)[C@@H]1CSSC[C@H](NC(=O)[C@H](CCCNC(=N)N)NC(=O)CC[C@H](NC(=O)CCCCCCCCCCCCCCCCCCC(=O)O)C(=O)O)C(=O)N[C@@H](CCC(N)=O)C(=O)N[C@@H]([C@@H](C)O)C(=O)N[C@@H](C)C(=O)N[C@@H]([C@@H](C)O)C(=O)N1)[C@@H](C)O [Compound 100, [19CD]-isoGlu-R-C( )-QTAT-C( )-ATDRLA-Aad-FLQRSSNNF-Gly(Me)-A-Ile(Me)-LSSTEVGSNT-Hyp-NH2, reference compound] ({C20 diacid-γGlu}-RCQTATCATDRLA[Aad]FLQRSSNNF[Sar]A[NMeI]LSSTEVGSNT[Hyp]-NH2; disulfide 2-7)",–,–,–,–,–,–,2.2 nM,0.53 nM,A (A = >90%),A (A = >90%),A (A = >90%),B (B = 70-90%)
